Experimental data as given in publication PMC7018972, “Novel and selective inactivators of Triosephosphate isomerase with anti-trematode activity” (Scientific Reports, 2020).

Biological target: Fasciola hepatica TIM (FhTIM) (Fasciola hepatica, UniProt S4UI50)
Test: Inhibition of recombinant FhTIM, coupled enzyme assay
Format: biochemical
Settings: not given
Method: Expression and purification of proteins: FhTIM, RabbitTIM and HsTIM were expressed in Escherichia coli and purified as described in the literature[31],[37]. […] Before use, extensive dialysis against 100 mM triethanolamine/10 mM EDTA (pH 7.4) was performed. […] Enzymatic activity was determined following the conversion of glyceraldehydes-3-phosphate into dihydroxyacetone phosphate in a coupled enzyme assay. The decrease in absorbance at 340 nm was followed in a multiplate reader VarioskanTM Flash Multimode Reader (Thermo ScientificTM, Waltham, MA, USA) at 38 °C. The reaction mixture (1 mL, pH 7.4) contained 100 mM triethanolamine, 10 mM EDTA, 0.2 mM NADH, 1 mM glyceraldehydes-3-phosphate and 0.9 units of α-glycerol phosphate dehydrogenase. The reaction was initiated by the addition of 5 ng/mL of the TIM of interest. For the inhibition studies, TIM was incubated at a concentration of 5 mg/mL in a buffer containing 100 mM triethanolamine, 10 mM EDTA, pH 7.4 and 10% of DMSO at 37 °C for 1 h. The mixture also contained the compounds, dissolved in DMSO, at the indicated concentrations. After 1 h, 10 µL were withdrawn and added to a final volume of 100 µL of the reaction mixture for the activity assay. The inhibition assay was performed in a 96-well microplate. […] The experiments were performed in triplicate in two independent experiments.

Sequence of Fasciola hepatica TIM (FhTIM) (S4UI50 entry or part of it): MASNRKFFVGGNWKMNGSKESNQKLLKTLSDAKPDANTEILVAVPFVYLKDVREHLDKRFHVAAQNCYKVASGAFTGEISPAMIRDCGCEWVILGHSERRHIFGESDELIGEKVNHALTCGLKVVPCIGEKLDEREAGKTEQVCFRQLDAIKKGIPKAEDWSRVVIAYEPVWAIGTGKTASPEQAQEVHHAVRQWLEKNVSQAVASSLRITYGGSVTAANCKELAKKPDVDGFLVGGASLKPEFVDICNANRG

FhTIM inhibition in words	SMILES
non-inhibitor	Cc1ccc(-c2nsc(=O)[nH]2)cc1 [Compound 191]

Same assay, conditions: Figure 1, ranges of inhibitory activity; read-out: IC50 range

IC50 [µM]	SMILES
< 50	O=C1C(=Cc2ccc([N+](=O)[O-])cc2)C(=O)N(Cc2ccccc2)S(=O)(=O)N1Cc1ccccc1 [Compound 111]
< 50	[O-][n+]1c2ccc(O)cc2[n+]([O-])c2cc(Cl)c(Cl)cc21 [Compound 183]

Same assay, conditions: Table 1S, screening of 340 compounds in FhTIM; table head prints no unit, µM per b8/b9; read-out: IC50

SMILES	IC50 [µM]
[O-][n+]1onc2ccc(C=Cc3ccc4nonc4c3)cc21 [Compound 12]	> 100
CC1(C)[N+]([O-])=c2ccc(C3OCCO3)cc2=[N+]1[O-] [Compound 105]	> 100
O=C1C(=Cc2ccc([N+](=O)[O-])s2)C(=O)N(C2CCCCC2)S(=O)(=O)N1C1CCCCC1 [Compound 113]	> 100
O=S(=O)(NC1CCCCC1)NC1CCCCC1 [Compound 118]	> 100
CCN(CC)CCCNS(=O)(=O)NCCCN(CC)CC [Compound 125]	> 100
NC1=NS(=O)(=O)N=C(N)C1 [Compound 126]	100
C=CCN1C(=O)CSC1=NN=Cc1ccc([N+](=O)[O-])s1 [Compound 129]	> 100
C=CCn1c(-c2ccc([N+](=O)[O-])cc2)csc1=NN=CC=Cc1ccc([N+](=O)[O-])s1 [Compound 131]	> 100
C=CCn1c(-c2ccc(OC)cc2)csc1=NN=Cc1ccc([N+](=O)[O-])s1 [Compound 132]	> 100
C=CCNC(=S)NN=CC=Cc1ccc([N+](=O)[O-])s1 [Compound 142]	> 100
C=CCn1c(C)csc1=NN=Cc1ccc([N+](=O)[O-])s1 [Compound 143]	50 to 100
C=CCn1c(-c2ccc(Cl)cc2)csc1=NN=Cc1ccc([N+](=O)[O-])s1 [Compound 145]	> 100
C=CCn1c(-c2ccc([N+](=O)[O-])cc2)csc1=NN=Cc1ccc([N+](=O)[O-])s1 [Compound 146]	> 100
Cc1c(C=NNC(N)=O)no[n+]1[O-] [Compound 159]	> 100
COC(=O)NN=Cc1no[n+]([O-])c1C [Compound 174]	> 100
CCCCNC(=O)NN=Cc1no[n+]([O-])c1C [Compound 175]	> 100
Cc1nnc(C)[n+]([O-])c1C=Cc1ccc(N(C)C)cc1 [Compound 213]	> 100
Cc1c(C=Cc2ccc([N+](=O)[O-])s2)ncn[n+]1[O-] [Compound 214]	> 100
Cc1nnc[n+]([O-])c1C=Cc1ccc2c(c1)OCO2 [Compound 216]	> 100
COc1ccc(C=Cc2c(C)[n+]([O-])nc[n+]2[O-])cc1 [Compound 218]	> 100
Cc1c(C=Cc2ccc(N(C)C)cc2)[n+]([O-])cn[n+]1[O-] [Compound 219]	> 100
O=C1CSC(=NN=Cc2ccc([N+](=O)[O-])s2)N1 [Compound 258]	> 100
C=CCn1c(C)csc1=NN=CC=Cc1ccc([N+](=O)[O-])s1 [Compound 259]	> 100
C=CCNC(=S)NN=CC=Cc1ccc(C)o1 [Compound 263]	> 100
C=CCN1C(=O)CSC1=NN=CC=Cc1ccco1 [Compound 264]	> 100
C=CCn1c(-c2ccc(Cl)cc2)csc1=NN=Cc1ccc(Cl)cc1 [Compound 265]	> 100
C=CCn1c(-c2ccc(Cl)cc2)csc1=NN=CC=Cc1ccco1 [Compound 266]	> 100
C=CCN1C(=O)CSC1=NN=Cc1cccs1 [Compound 273]	> 100

Other lines, results leading:

IC50 [µM]	SMILES
> 100	O=C(O)c1ccc(C=CCN2C(=O)c3ccccc3C2=O)cc1 (mixture of isomers) [Compound 617]
> 100	COC(=O)NN=Cc1ccc2nonc2c1 [Compound 31]
> 100	O=Cc1ccc2no[n+]([O-])c2c1 [Compound 38]
> 100	[O-][n+]1onc2ccc(C=NNC(=S)Nc3ccccc3)cc21 [Compound 41]
> 100	O=C(/C=C/c1ccco1)N1CCN(C/C=C/c2ccccc2)CC1 [Compound 50]
> 100	O=C(/C=C/c1ccc([N+](=O)[O-])o1)N1CCN(C/C=C/c2ccccc2)CC1 [Compound 51]
> 100	O=[N+]([O-])c1ccc(C=CC=NNC(=S)Nc2ccccc2)o1 [Compound 54]
> 100	COCCNC(=O)/C=C/c1ccc([N+](=O)[O-])o1 [Compound 60]
> 100	CCOC(=O)C=Cc1ccc([N+](=O)[O-])o1 [Compound 66]
> 100	C=CCNC(=S)NN=Cc1ccco1 [Compound 69]
> 100	Cc1ccc2c(c1)=[N+]([O-])C(C)(C)[N+]=2[O-] [Compound 109]
< 25	O=C1C(=Cc2ccc([N+](=O)[O-])cc2)C(=O)N(Cc2ccccc2)S(=O)(=O)N1Cc1ccccc1 [Compound 111]
> 100	NC1=NS(=O)(=O)N=C(N)C1=Cc1ccc([N+](=O)[O-])o1 [Compound 117]
> 100	O=S(=O)(NCc1ccccc1)NCc1ccccc1 [Compound 119]
> 100	O=S(=O)(NCCc1ccccc1)NCCc1ccccc1 [Compound 120]
> 100	CCCCNS(=O)(=O)NCCCC [Compound 123]
> 100	NS(=O)(=O)NCc1ccccc1 [Compound 124]
> 100	O=C1CC(=O)N(CCc2ccccc2)S(=O)(=O)N1CCc1ccccc1 [Compound 127]
> 100	CC(=O)N(C1=NN(C(C)=O)C(c2ccc([N+](=O)[O-])s2)S1)c1ccccc1 (stereo not drawn) [Compound 130]
> 100	C=CCNC(=S)NN=Cc1ccc([N+](=O)[O-])s1 [Compound 136]

IC50 [µM]	SMILES
> 100	C=CCn1c(-c2ccccc2)csc1=NN=Cc1ccc([N+](=O)[O-])s1 [Compound 147]
> 100	O=c1cc(-c2ccccc2)oc2ccccc12 [Compound 148]
> 100	[O-][n+]1onc(-c2ccccc2)c1CNc1cccc2ccccc12 [Compound 169]
> 100	Cc1c(CNc2cccc3ccccc23)no[n+]1[O-] [Compound 172]
50 to 100	Cc1c(CNc2ccc3ccccc3c2)no[n+]1[O-] [Compound 173]
> 100	Nc1ccc2c(c1)[n+]([O-])c1cc(Cl)ccc1[n+]2[O-] [Compound 184]
> 100	Cc1ccc(-c2nsc(=O)[nH]2)cc1 [Compound 191]
> 100	COc1nn(CCOCCN2CCN(CC=Cc3ccccc3)CC2)c2ccc([N+](=O)[O-])cc12 [Compound 198]
> 100	CCCN(CCCCCn1nc(OCc2ccccc2)c2cc([N+](=O)[O-])ccc21)CCC(C)C1CC=C(C)CC1 (stereo not drawn) [Compound 199]
> 100	N#Cc1c2ccccc2[n+]([O-])n1-c1ccc2ccccc2c1 [Compound 202]
> 100	Cc1nnc[n+]([O-])c1/C=C/c1ccc(Cl)cc1 [Compound 211]
> 100	COc1ccc(C=O)cc1-c1cc(C=O)ccc1OC [Compound 237]
> 100	C=CCN1C(=O)CSC1=NN=Cc1ccc(Cl)cc1 [Compound 260]
> 100	C=CCNC(=S)NN=Cc1ccc(Cl)cc1 [Compound 261]
> 100	O=C1CSC(=NN=Cc2ccc([N+](=O)[O-])s2)N1c1ccccc1 [Compound 262]
> 100	O=[N+]([O-])c1ccc(C=NN=c2[nH]c(-c3ccc(Cl)cc3)cs2)s1 [Compound 267]
> 100	O=[N+]([O-])c1ccc(C=NN=c2scc(-c3ccccc3)n2-c2ccccc2)s1 [Compound 268]
> 100	C(=NN=c1scc(-c2ccccc2)n1-c1ccccc1)c1ccccc1 [Compound 270]
> 100	C=CCn1c(-c2ccccc2)csc1=NN=Cc1cccs1 [Compound 272]

Same assay, conditions: recombinant FhTIM, 1 h incubation with compound at 37 °C; read-out: IC50

IC50 [µM]	SMILES
50 ± 9	CN(C)CCCNS(=O)(=O)NCCCN(C)C [Compound 121]
25 ± 3	[O-][n+]1c2ccc(O)cc2[n+]([O-])c2cc(Cl)c(Cl)cc21 [Compound 183]
